Assay results published in patent publication US20100047360A1, “Use Of Polyamines In The Treatment Of Psoriasis” (Bioforskining Pharma AS, priority 2006, published 2010).

Tested on: psoriasis
Assay: Clinical study, efficacy of topical cream in psoriasis patients
Format: in vivo, human
Conditions: patient; previously used antipsoriasis drugs
Source text: The patient started to use a cream according to Example 1 two to four times daily. […] The patient stopped using the spermine cream after about six months.
A patient with psoriasis (knees, elbows and scalp) started to use a cream according to Example 1 daily.
A patient with psoriasis (scalp, auditory canal, hands, elbows, partly in the face and body (psoriasis grade medium on 15% of the body)).

## CN(Cc1cnc2nc(N)nc(N)c2n1)c1ccc(C(=O)N[C@@H](CCC(=O)O)C(=O)O)cc1 [methotrexate]
  effectiveness of previous treatment: only effective treatment
